Like-named read-outs stand apart in the source and are kept apart here.
Legend:
B-16 melanoma cells = experiment: Evaluation of melanin production-inhibitory function (degree of whiteness of cultured cells); assay type: cell-based; for Evaluation of Melanin Production-Inhibition (degree of whiteness of cells): key: ++: The degree of whiteness is higher than that observed for the positive control; +: The degree of whiteness is almost identical to that of the positive control; ±: The degree of whiteness is not higher than that observed for the positive control, but higher than that observed for control; −: The degree of whiteness is almost identical to that observed for the control
Description: The melanin production-inhibitory function of the 5-membered ring-containing triterpenes incorporated into the foods or beverages and orally administered whitening agents of the present invention can be determined by a test method, which makes use of cultured melanocytes. The term “melanocyte(s)” used herein means cells having an ability of producing melanin and when cultivating these cells in the usual manner, the cells are blackened due to the accumulation of melanin pigment thus produced. Contrary to this, if a substance having such a melanin production-inhibitory function is incorporated into this cultivation system, the melanin production is suppressed and the skin is relatively whitened. The melanin production-inhibitory function can likewise be evaluated on the basis of this degree of relative whitening.
A culture medium (2 mL/well) was dispensed to a 6-well plate, a predetermined amount of B-16 melanoma cells was inoculated into the culture medium in each well and the cells were cultured at 37° C. and 5% CO2 by allowing the culture medium to stand. On the next day, a solution of test sample (each 5-membered ring-containing triterpene to be evaluated) having a predetermined concentration was added to and mixed with the culture medium and the cultivation was continued. On the 5th day from the initiation of the cultivation, the culture medium was exchanged and the test sample solution was again added to each well. On the next day, the culture medium was removed from each well to thus recover the cells, followed by washing the cells with PBS (phosphate-buffered physiological saline) and evaluation of the desired function based on the degree of whiteness of the cells. In this connection, the melanin production-inhibitory effect was evaluated by comparing the resulting degree of whiteness with that observed when 450 ppm of vitamin C-magnesium phosphate having a known effect was added instead of the test sample solution (positive control) and that observed when any test sample was not added (control) according to the following criteria.
The evaluation criteria for the degree of whiteness of cells are as follows: […]

[1] = test system: deposition of melanin pigment on the skin induced by the UV light irradiation; experiment: Animal test for the confirmation of whitening effect (UV-induced skin pigmentation, test feed); assay type: in vivo, Brown guinea pigs; details: free ingestion, 4 weeks; for Evaluation Results CI: number of 7 animals ranked Conspicuous Imp.; for Evaluation Results MI: number of 7 animals ranked Medium Imp.; for Evaluation Results NC: number of 7 animals ranked No Change; for Evaluation Results SI: number of 7 animals ranked Slight Imp.
Description: More specifically, the whitening effect can be evaluated by removing a half of the hair on the back of each brown guinea pig, keeping these animals over 2 weeks while irradiating the hair-removed area with a UV lamp, dividing these guinea pigs into groups in such a manner that there is not any difference in the degree of the melanin pigmentation induced by the UN light irradiation, allowing the animals in each group to freely take a test food comprising a feed having a low vitamin C content to which a variety of triterpenes have been added and keeping these animals over additional 4 weeks to evaluate the degree of skin pigmentation while comparing the same with those observed for a control group and for a positive control group.
Brown guinea pigs (5-week-old male animals) were preliminarily kept for one week using a commercially available feed (CG-7 available from Nippon Kurea Company), a half of the hair on the back was removed and the hair-removed portion on the back was irradiated with light rays emitted from a UV lamp of 1.2 mW for 5 minutes on the 1st day and then with light rays emitted from a UV lamp of 1.0 mW for 5 minutes on the 2nd and 3rd days. Subsequently, these animals were kept over 2 weeks using a feed having a low vitamin C content (200.0 mg/kg feed), these guinea pigs were divided into 12 groups (comprising 7 animals each) in such a manner that there was not observed any difference in the degree of deposition of melanin pigment on the skin induced by the UV light irradiation between groups and then the animals were allowed to freely ingest each test feed comprising the feed having a low vitamin C content to which each triterpene had been added in an amount specified in the following Table 2. In this respect, however, the vitamin C-deficient feed per se was supplied to the control group and a vitamin C-supplemented feed was supplied to the positive control group. After 4 weeks from the supply of the test feed, the degree of the pigmentation of the skin was evaluated according to the following criteria.

[2] = Concentration 2 ppm, rank vs 450 ppm vitamin C-magnesium phosphate
[3] = Concentration 4 ppm, rank vs 450 ppm vitamin C-magnesium phosphate
[4] = Concentration 6 ppm, rank vs 450 ppm vitamin C-magnesium phosphate
[5] = Concentration 8 ppm, rank vs 450 ppm vitamin C-magnesium phosphate
[6] = Concentration 10 ppm, rank vs 450 ppm vitamin C-magnesium phosphate
[7] = compared with 450 ppm of vitamin C-magnesium phosphate

SMILES	Evaluation of Melanin Production-Inhibition (degree of whiteness of cells) (B-16 melanoma cells; [2])	Evaluation of Melanin Production-Inhibition (degree of whiteness of cells) (B-16 melanoma cells; [3])	Evaluation of Melanin Production-Inhibition (degree of whiteness of cells) (B-16 melanoma cells; [4])	Evaluation of Melanin Production-Inhibition (degree of whiteness of cells) (B-16 melanoma cells; [5])	Evaluation of Melanin Production-Inhibition (degree of whiteness of cells) (B-16 melanoma cells; [6])	melanin production-inhibitory function relative to that observed for the positive control/standard (B-16 melanoma cells; [7])	Evaluation Results CI ([1]; 500.0 mg/kg feed)	Evaluation Results MI ([1]; 500.0 mg/kg feed)	Evaluation Results NC ([1]; 500.0 mg/kg feed)	Evaluation Results SI ([1]; 500.0 mg/kg feed)	Evaluation of Melanin Production-Inhibition (degree of whiteness of cells) (B-16 melanoma cells)	melanin production-inhibitory function relative to that observed for the positive control/standard (B-16 melanoma cells)	Evaluation Results CI ([1]; 500.0 mg/kg feed, 500 mg/kg)	Evaluation Results SI ([1]; 500.0 mg/kg feed, 500 mg/kg)	also measured
CC(=O)O[C@@H]1C[C@]2(C)[C@H]3CC=C4[C@@H]5CC(C)(C)CC[C@]5(C(=O)O)CC[C@@]4(C)[C@]3(C)CC[C@H]2C(C)(C)[C@H]1OC(C)=O [Compound of Synthetic Example 2, 2,3-O-di-Acetyl-Maslinic Acid]	±	±	+	++	++	about 75 times	2	4	0	1					Evaluation of Melanin Production-Inhibition (degree of whiteness of cells) (B-16 melanoma cells; Concentration 15 ppm, rank vs 450 ppm vitamin C-magnesium phosphate): ++
CC1(C)CC[C@]2(CO)CC[C@]3(C)C(=CC[C@@H]4[C@@]5(C)CC[C@H](O)C(C)(C)[C@@H]5CC[C@]43C)[C@@H]2C1 [Erythrodiol]	±		±		±	about 20 times	2	2	1	2					Evaluation of Melanin Production-Inhibition (degree of whiteness of cells) (B-16 melanoma cells; Concentration 25 ppm, rank vs 450 ppm vitamin C-magnesium phosphate): +; Evaluation of Melanin Production-Inhibition (degree of whiteness of cells) (B-16 melanoma cells; Concentration 50 ppm, rank vs 450 ppm vitamin C-magnesium phosphate): +
CC1(C)CC[C@]2(C(=O)O)CC[C@]3(C)C(=CC[C@@H]4[C@@]5(C)C[C@@H](O)[C@H](O)C(C)(C)[C@@H]5CC[C@]43C)[C@@H]2C1 [Purified maslinic acid 1, maslinic acid]								3	0		± and + and ++	about 110 times	4	0	concentration at which the function is identical to that observed for 450 ppm of the positive control (B-16 melanoma cells): 4 ppm; Evaluation Results CI ([1]; 250.0 mg/kg feed): 2; Evaluation Results MI ([1]; 250.0 mg/kg feed): 3; Evaluation Results NC ([1]; 250.0 mg/kg feed): 0; Evaluation Results SI ([1]; 250.0 mg/kg feed): 2
CC1(C)CC[C@]2(C(=O)O)CC[C@]3(C)C(=CC[C@@H]4[C@@]5(C)C[C@@H](O)[C@H](O)C(C)(C)[C@@H]5CC[C@]43C)[C@@H]2C1 [Purified maslinic acid 2, maslinic acid]								3	0		± and + and ++	about 110 times	3	1	
C[C@H]1[C@H](C)CC[C@]2(C(=O)O)CC[C@]3(C)C(=CC[C@@H]4[C@@]5(C)CC[C@H](O)C(C)(C)[C@@H]5CC[C@]43C)[C@H]12 [Ursolic acid]	±	+	++	++	++	about 110 times	4	2	0	1					
C[C@H]1[C@H](C)CC[C@]2(CO)CC[C@]3(C)C(=CC[C@@H]4[C@@]5(C)CC[C@H](O)C(C)(C)[C@@H]5CC[C@]43C)[C@H]12 [Uvaol]	−		−		+	about 40 times	1	4	1	1					

Source: patent publication US20040086553A1, “Foods and beverages for whitening and orally administered whitening agents” (The Nisshin OilliO, Ltd., priority 2000, published 2004)
